Source: ChEMBL document CHEMBL1201862, “PubChem BioAssay data set” (2004)
Active and inactive are the calls of the source.

Legend:
Vero = experiment: viability of Vero cells under compound – cytotoxicity control for flavivirus capping enzyme inhibitors (AID 588742); assay type: functional; conditions: Chlorocebus sabaeus
INS1 = experiment: INS-1E survival protection against cytokine death – cell-based, luminescence, retest, dose response (AID 449756); assay type: functional; conditions: Rattus norvegicus;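 further: cell death triggered by IL-1 beta plus TNF-alpha plus IFN-gamma mixture; protective hits raise ATP signal compared with cytokine alone wells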
[1] = bead-based luminescence quenchers, dual-tagged ARNT – biochemical, AlphaScreen, cherry-pick, artefact control for ARNT-TACC3 interaction inhibitor project, dose response (AID 651705); assay type: functional;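 further: AlphaScreen bead proximity signal that flags compounds interfering with the detection technology; potency reflects signal decrease which marks the compound as an assay artifact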
Genome polyprotein = Genome polyprotein (dengue virus type 2, UniProt P29990); experiment: flavivirus cap methylation enzyme inhibition – biochemical, confirmation dose response, primary screen (AID 588689); assay type: functional
Chain of Genome polyprotein (P29990 2492-3391 limits assumed): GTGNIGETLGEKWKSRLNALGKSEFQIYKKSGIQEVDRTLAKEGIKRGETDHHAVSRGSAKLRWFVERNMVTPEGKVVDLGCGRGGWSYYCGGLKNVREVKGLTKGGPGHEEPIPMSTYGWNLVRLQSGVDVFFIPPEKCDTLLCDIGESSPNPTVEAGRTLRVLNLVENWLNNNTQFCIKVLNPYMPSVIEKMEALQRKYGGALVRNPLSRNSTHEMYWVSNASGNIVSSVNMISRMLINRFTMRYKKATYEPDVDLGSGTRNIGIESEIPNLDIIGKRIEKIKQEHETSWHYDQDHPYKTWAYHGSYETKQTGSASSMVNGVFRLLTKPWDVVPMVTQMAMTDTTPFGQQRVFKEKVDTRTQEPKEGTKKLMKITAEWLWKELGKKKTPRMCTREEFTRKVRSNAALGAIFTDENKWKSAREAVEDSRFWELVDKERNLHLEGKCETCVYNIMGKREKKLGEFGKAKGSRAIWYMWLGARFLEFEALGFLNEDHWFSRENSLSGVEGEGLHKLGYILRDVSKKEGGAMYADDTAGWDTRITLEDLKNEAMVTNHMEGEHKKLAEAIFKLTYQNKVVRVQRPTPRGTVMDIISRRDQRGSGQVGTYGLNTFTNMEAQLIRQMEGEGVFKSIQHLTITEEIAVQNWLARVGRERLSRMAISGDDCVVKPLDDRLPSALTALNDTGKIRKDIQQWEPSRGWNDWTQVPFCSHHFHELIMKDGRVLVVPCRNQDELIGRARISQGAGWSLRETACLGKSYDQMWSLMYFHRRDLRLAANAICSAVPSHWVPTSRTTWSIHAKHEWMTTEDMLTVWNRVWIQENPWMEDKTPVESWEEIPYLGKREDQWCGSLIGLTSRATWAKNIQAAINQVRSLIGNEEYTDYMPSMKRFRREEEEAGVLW

[2] = molecular target: Eukaryotic translation initiation factor 4E (Mus musculus, UniProt P63073); experiment: blockers of eIF4G binding by eIF4E – biochemical, TR-FRET, dose response (AID 855); assay type: functional;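 further: potency for disrupting eIF4E binding to eIF4GI seen as loss of FRET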
Chain of Eukaryotic translation initiation factor 4E (P63073 whole entry): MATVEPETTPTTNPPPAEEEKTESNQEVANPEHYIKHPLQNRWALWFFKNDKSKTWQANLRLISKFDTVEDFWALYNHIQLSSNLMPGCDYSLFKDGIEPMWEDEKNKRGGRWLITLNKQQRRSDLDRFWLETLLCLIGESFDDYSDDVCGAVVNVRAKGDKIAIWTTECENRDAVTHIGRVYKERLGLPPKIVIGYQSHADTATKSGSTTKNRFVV

Albumin = Albumin (Bos taurus, UniProt P02769); experiment: Counterscreen for inhibitors of T-cell receptor (TCR)-CD3 interaction: Fluorescence-based biochemical high throughput dose response assay to identify inhibitors of T-cell receptor (TCR)-CD3 interaction using a TAMRA-labeled BSA probe.; assay type: functional
Chain of Albumin (P02769 whole entry): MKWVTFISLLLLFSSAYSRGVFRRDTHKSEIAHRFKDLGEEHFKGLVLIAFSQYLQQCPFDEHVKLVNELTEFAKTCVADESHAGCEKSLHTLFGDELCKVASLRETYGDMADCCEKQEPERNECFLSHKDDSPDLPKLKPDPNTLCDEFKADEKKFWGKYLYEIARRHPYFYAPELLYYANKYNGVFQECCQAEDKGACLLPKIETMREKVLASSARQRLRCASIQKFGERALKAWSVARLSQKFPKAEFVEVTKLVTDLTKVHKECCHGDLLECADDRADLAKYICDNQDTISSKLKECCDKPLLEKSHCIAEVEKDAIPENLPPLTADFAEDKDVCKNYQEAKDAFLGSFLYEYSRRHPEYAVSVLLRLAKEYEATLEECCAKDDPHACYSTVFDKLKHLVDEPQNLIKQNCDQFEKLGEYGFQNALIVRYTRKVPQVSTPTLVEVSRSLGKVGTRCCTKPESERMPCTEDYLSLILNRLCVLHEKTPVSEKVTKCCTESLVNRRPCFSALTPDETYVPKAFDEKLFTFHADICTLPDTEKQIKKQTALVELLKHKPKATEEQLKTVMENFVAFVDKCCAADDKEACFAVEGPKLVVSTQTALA

SUMO-activating enzyme [3] = molecular target: T1, SUMO-activating enzyme (Homo sapiens, UniProt Q9UBT2); experiment: blockers of SAE1/SAE2–UBC9 SUMO transfer – biochemical, HTRF, uHTS, primary screen (AID 2006); assay type: protein-complex assay
T1 sequence (Q9UBE0 whole entry): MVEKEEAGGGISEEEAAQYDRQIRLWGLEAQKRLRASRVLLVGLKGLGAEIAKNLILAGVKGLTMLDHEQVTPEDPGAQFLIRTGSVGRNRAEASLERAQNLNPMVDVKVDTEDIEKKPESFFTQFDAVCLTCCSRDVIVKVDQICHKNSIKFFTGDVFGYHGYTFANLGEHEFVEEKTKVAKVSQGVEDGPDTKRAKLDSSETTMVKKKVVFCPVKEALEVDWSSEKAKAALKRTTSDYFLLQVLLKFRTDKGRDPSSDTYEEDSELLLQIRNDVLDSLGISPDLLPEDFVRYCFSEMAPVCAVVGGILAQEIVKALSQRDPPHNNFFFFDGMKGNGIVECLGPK
T1 sequence (Q9UBT2 whole entry): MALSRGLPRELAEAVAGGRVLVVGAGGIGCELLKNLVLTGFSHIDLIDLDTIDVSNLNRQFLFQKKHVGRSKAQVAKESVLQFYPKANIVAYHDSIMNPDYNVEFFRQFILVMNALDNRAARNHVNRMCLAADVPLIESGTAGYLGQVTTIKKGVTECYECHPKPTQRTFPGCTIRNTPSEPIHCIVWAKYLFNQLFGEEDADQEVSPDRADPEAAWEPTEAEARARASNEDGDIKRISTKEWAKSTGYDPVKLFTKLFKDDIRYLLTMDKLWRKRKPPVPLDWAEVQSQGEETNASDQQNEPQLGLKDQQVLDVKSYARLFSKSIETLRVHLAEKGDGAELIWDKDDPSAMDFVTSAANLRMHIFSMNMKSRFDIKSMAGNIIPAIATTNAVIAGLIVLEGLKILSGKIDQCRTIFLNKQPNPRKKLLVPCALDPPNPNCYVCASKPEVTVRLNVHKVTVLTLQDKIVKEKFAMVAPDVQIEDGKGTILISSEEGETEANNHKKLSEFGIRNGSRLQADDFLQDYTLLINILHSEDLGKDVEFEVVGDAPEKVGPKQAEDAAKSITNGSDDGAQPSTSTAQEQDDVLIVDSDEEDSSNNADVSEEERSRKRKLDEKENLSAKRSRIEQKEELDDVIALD

SUMO-activating enzyme [4] = molecular target: T1, SUMO-activating enzyme; experiment: blockers of UBC9-mediated SUMO conjugation – biochemical, AlphaScreen, SUMOylation inhibitor project, confirmation (AID 2018); assay type: functional
cells [5] = assay type: functional, cell-based
[6] = fluconazole-exposed Candida albicans growth modulators – fluorescence, retest, confirmation (AID 2467); assay type: functional, cell-based
[7] = molecular target: T2, Microphthalmia-associated transcription factor (Homo sapiens, UniProt O75030); experiment: reducers of TRPM1 reporter luminescence, concentration series – cell-based, SK-MEL-5, cherry-picked, set 3, MITF inhibitor project, dose response (AID 493073); assay type: functional;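 further: SK-MEL-5 melanoma cells with luciferase driven by the MITF target TRPM1 promoter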
T2 sequence (O75030 whole entry): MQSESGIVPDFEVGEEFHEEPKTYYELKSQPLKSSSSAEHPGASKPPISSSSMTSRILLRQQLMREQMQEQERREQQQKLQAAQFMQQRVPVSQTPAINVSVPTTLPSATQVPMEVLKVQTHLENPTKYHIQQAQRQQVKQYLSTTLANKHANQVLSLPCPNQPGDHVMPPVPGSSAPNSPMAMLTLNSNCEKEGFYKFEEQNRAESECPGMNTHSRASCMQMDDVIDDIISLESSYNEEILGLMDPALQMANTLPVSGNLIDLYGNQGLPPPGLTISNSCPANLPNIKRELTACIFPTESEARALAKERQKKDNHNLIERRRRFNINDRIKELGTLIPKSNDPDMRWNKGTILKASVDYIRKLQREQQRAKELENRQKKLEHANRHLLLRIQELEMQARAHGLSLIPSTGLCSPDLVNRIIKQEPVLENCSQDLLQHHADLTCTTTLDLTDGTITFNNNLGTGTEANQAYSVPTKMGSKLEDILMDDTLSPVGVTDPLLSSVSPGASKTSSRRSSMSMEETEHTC

cells [8] = assay type: functional, cell-based; remark: listed apart in the source
A-375 = experiment: proliferation inhibition in MITF-low A375 cells – cell-based, cherry-pick samples, set 2, counter-screen for MITF modulator project, dose response (AID 540335); assay type: functional; conditions: Homo sapiens
[9] = NIH-3T3 fibroblast cytotoxicity, dose response, cytotoxicity control, cell-based, fluorescence, Alamar Blue, secondary assay (AID 2327); assay type: functional;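 further: NIH-3T3 mouse fibroblasts cultured with fluconazole at 8 µg/mL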
HEK293 [10] = experiment: HEK293T cell viability loss, resazurin readout – resazurin fluorescence, cytotoxicity control for NF-kB activator project, SAR follow-up (AID 493251); assay type: functional, cell-based; conditions: Homo sapiens
Jurkat = experiment: SAR Analysis of small molecule inhibitors of T-cell specific antigen receptor-induced NF-kB activation in a Jurkat cell line using a luminescence assay - Set 2. [Related pubchem assays (depositor defined):AID435003, AID435012, AID465]; assay type: functional, cell-based; conditions: Homo sapiens
HEK293 [11] = experiment: SAR Analysis of small molecule inhibitors of T-cell specific antigen receptor-induced NF-kB activation in a HEK-293T cell line using a luminescence assay - Set 2. [Related pubchem assays (depositor defined):AID435003, AID435012, AID489026]; assay type: functional, cell-based; conditions: Homo sapiens
[12] = molecular target: Beta-2 adrenergic receptor (Homo sapiens, UniProt P07550); experiment: ADRB2 activation measured by internalization – cell-based, FAP fluorogen, flow cytometry, cherry pick 1, dose response (AID 588763); assay type: functional
Chain of Beta-2 adrenergic receptor (P07550 whole entry): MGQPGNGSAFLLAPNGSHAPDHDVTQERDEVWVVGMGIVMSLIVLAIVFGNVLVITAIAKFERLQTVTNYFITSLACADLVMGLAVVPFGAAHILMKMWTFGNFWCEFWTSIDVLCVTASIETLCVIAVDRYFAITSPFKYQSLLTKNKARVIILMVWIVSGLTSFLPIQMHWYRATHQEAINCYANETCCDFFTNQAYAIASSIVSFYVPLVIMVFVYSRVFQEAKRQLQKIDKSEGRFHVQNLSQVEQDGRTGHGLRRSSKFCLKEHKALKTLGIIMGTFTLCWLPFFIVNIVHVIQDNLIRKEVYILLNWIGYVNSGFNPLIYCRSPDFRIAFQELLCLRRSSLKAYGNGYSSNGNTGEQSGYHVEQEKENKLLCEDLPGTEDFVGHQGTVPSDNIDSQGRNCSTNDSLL

Cc1ccccc1C(=O)Nc1cccc(C(=O)N/N=C/c2cc(Cl)cc([N+](=O)[O-])c2O)c1
CC50 (Vero): 33 µM (active) | AC50 (INS1): 7.14 µM (active) | AC50 [1]: 95.3 µM (active) | IC50 (Genome polyprotein): > 100 µM (active) | IC50 [2]: 50 µM (inactive) | IC50 (Albumin): > 94.1 µM (inactive) | IC50 (SUMO-activating enzyme [3]): > 100 µM (inactive) | IC50 (SUMO-activating enzyme [4]): 6.22 µM (active)

O=C(N/N=C\c1cc(Cl)ccc1O)c1ccc(S(=O)(=O)N2CCCCC2)cc1
EC50 (cells [5]): > 350 µM (not active) | EC50 [6]: 0.381 µM (active) | AC50 (INS1): 1.01 µM (active) | AC50 [7]: 2.81 µM (active) | EC50 (cells [8]): 265 µM (active) | AC50 (A-375): 46.3 µM (active) | EC50 [9]: 63.9 µM (inconclusive)

CC(C)CC(=O)NC(c1ccccc1)c1ccc2cccnc2c1O (centres undefined)
IC50 (HEK293 [10]): 10.4 µM (active) | IC50 (Jurkat): 4.18 µM (active) | IC50 (HEK293 [11]): 7.19 µM (active)

CCOCCCNC(=O)c1cc(-c2cccnc2)nc2ccc(S(=O)(=O)N3CCC(C)CC3)cc12
EC50 [12]: 6.09 µM (inactive)
